# Experimental data as given in ChEMBL document CHEMBL1137435, “Synthesis and application of 2'-fluoro-substituted cap analogs” (Bioorg Med Chem Lett, 2007).
# Assay: Capping efficiency on mRNA after 2 hrs by gel shift assay
row,SMILES,Activity
1,C[n+]1cn([C@H]2O[C@@H](COP(=O)([O-])OP(=O)(O)OP(=O)(O)OC[C@H]3O[C@@H](n4cnc5c(=O)[nH]c(N)nc54)[C@H](O)[C@@H]3O)[C@H](O)[C@@H]2O)c2nc(N)[nH]c(=O)c21,61%
2,C[n+]1cn([C@@H]2O[C@H](COP(=O)([O-])OP(=O)([O-])OP(=O)(O)OC[C@@H]3O[C@H](n4c[n+](C)c5c(=O)[nH]c(N)nc54)[C@@H](F)[C@H]3O)[C@@H](O)[C@H]2O)c2nc(N)[nH]c(=O)c21,52%
3,C[n+]1cn([C@H]2O[C@@H](COP(=O)([O-])OP(=O)(O)OP(=O)(O)OC[C@H]3O[C@@H](n4cnc5c(=O)[nH]c(N)nc54)[C@H](O)[C@@H]3O)[C@H](O)[C@@H]2F)c2nc(N)[nH]c(=O)c21,70%
